This is an account of results in PMC5053481, “Structural Insights into the Methylation of C1402 in 16S rRNA by Methyltransferase RsmI” (PLoS ONE, 2016).

For one data set, the target named is RsmI (G12-P258) (Escherichia coli, UniProt P67087). Description: X-ray crystal structure, […] Å. The conditions noted are these: co-crystallised, AdoMet:RsmI 5:1; site between NTD and CTD. It counts as binding.
The target of data set [1] is RsmI (full-length) (Escherichia coli, UniProt P67087, F144A). Nature of the data set: isothermal titration calorimetry, one-site model. It counts as binding. The note with it: read-out: Ka (10^4/M) (converted). Background: ITC needs no label: the signal is the heat of the interaction.
Chain of RsmI (full-length) (Escherichia coli, UniProt P67087, F144A) (P67087 whole entry F144A): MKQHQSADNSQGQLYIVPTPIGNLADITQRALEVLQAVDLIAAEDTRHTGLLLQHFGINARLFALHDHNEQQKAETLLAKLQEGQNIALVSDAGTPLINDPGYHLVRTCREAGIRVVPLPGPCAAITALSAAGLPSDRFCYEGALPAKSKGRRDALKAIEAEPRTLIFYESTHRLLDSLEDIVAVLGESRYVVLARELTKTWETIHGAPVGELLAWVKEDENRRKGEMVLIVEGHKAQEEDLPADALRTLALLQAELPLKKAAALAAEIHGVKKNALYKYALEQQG
Data set [2] addresses RsmI (full-length) (Escherichia coli, UniProt P67087, Y169A). Description: isothermal titration calorimetry, one-site model. It counts as binding. The conditions noted are these: read-out: Ka (10^4/M) (converted).
Data set [3] deals with RsmI (full-length) (Escherichia coli, UniProt P67087). Nature of the data set: isothermal titration calorimetry, one-site model. In kind it is binding. The note with it: read-out: Ka (10^4/M) (converted).
Chain of RsmI (full-length) (Escherichia coli, UniProt P67087) (P67087 whole entry): as the sequence (P67087 whole entry F144A) above, with A144F counted along it
Data set [4] concerns the molecule itself. Nature of the data set: SEC; gel filtration on Superdex 200 10/300 GL; purified RsmI (Gly12-Pro258) eluted at 15.0 ml, compared with protein standards. Background: SEC sorts molecules by how far they enter the pores of the column.

Chain of RsmI (full-length) (Escherichia coli, UniProt P67087, Y169A) (P67087 whole entry Y169A): as the sequence (P67087 whole entry F144A) above, with A144F, Y169A counted along it

As for `C[S+](CC[C@H](N)C(=O)O)C[C@H]1O[C@@H](n2cnc3c(N)ncnc32)[C@H](O)[C@@H]1O` (some centres unmarked) [AdoMet], the “X-ray crystal structure, 2.20 Å” value at RsmI (G12-P258) is “coordinate and structure factor of RsmI-AdoMet complex have been deposited with the RCSB PDB”. In addition, the results for the Kd at RsmI (full-length) [1], on RsmI (full-length) [2] and at RsmI (full-length) [3] were 67.6 µM, 24.2 µM and 23.3 µM, respectively.

B1: RsmI truncation Gly12-Pro258 (E. coli 16S rRNA 2'-O-methyltransferase RsmI) (domain or fragment, Escherichia coli, UniProt P67087 12-258, looked up)
chain: GQLYIVPTPIGNLADITQRALEVLQAVDLIAAEDTRHTGLLLQHFGINARLFALHDHNEQQKAETLLAKLQEGQNIALVSDAGTPLINDPGYHLVRTCREAGIRVVPLPGPCAAITALSAAGLPSDRFCYEGFLPAKSKGRRDALKAIEAEPRTLIFYESTHRLLDSLEDIVAVLGESRYVVLARELTKTWETIHGAPVGELLAWVKEDENRRKGEMVLIVEGHKAQEEDLPADALRTLALLQAELP
notes: RsmI, AdoMet-dependent methyltransferase for 2'-O-methylation of C1402 in 16S rRNA, Escherichia coli, residues Gly12-Pro258; It was co-crystallised with the cofactor AdoMet; The asymmetric unit holds three molecules: one non-crystallographic dimer and one half of a crystallographic dimer; also called RmsI; RsmI (G12-P258); source: expressed and purified as reported previously [15]
Turning to B1, the “stoichiometry N” value in data set [4] was determined as 2.

The stoichiometry N is a count of units in the complex or per binding partner.
